Test results from PubChem BioAssay AID463204 (Broad Institute, 2010).
The source made the active and inactive calls.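 The calls were made as follows: active = AC50 no more than ten times the top concentration tested, that is within one log above it; inconclusive = flat curve fit with activity between 30% and 70%, or invalid poor fit; inactive = AC50 beyond ten times the top tested dose.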

test system: S. cerevisiae Mot1-301 ts growth rescue, BacTiter-Glo ATP luminescence; experiment: restored Mot1-301 yeast growth at 38.5C – whole organism, S. cerevisiae, Mot1-301 ts mutant, luminescence, dose retest, SUMOylation pathway inhibitor project, confirmation (AID 463204);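 also: growth at restrictive 38.5 degrees C of Mot1-301 OY566 strain; actives raise luminescence by restoring growth of the ts mutant at high temperature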

Row | SMILES | AC50
1 | O=C(C1CCCN(S(=O)(=O)c2cnc[nH]2)C1)N1CCN(c2ccc(Cl)cc2)CC1 (stereo not drawn) | > 42 µM (inactive)
2 | NC(=S)N/N=C/c1cccc(O)c1O | > 42 µM (inactive)
3 | CNS(=O)(=O)c1cccc(C(=O)OCC(=O)Nc2ccc(OC)cc2[N+](=O)[O-])c1 | > 42 µM (inactive)
4 | CC1=CS(=O)(=O)CC1Sc1ncn[nH]1 (stereo not drawn) | > 42 µM (inactive)
5 | CCc1ccccc1NC1c2ccccc2C(=O)N1c1cccnc1 (stereo not drawn) | > 42 µM (inactive)
6 | Nc1nnnn1CC(=O)N/N=C/c1cccs1 | > 42 µM (inactive)
7 | COc1cccc(/C=C/C(=O)OCC(=O)Nc2ccc(Cl)cn2)c1 | > 42 µM (inactive)
8 | COc1ccccc1NC(=O)c1ccc(-n2ccnc2)c([N+](=O)[O-])c1 | > 42 µM (inactive)
9 | Cc1nc2ccc(NC(=O)c3ccc(S(=O)(=O)N4CCOCC4)cc3)cc2s1 | > 42 µM (inactive)
10 | S=C(c1ccc(N2CCOCC2)cc1)N1CCCCC1 | > 42 µM (inactive)
11 | COc1ccccc1CNC(=O)C(C)Sc1ccc(C)cc1 (stereo not drawn) | > 42 µM (inactive)
12 | CCn1cc(C(=O)NCc2ccccn2)c(=O)c2cc(F)c(N3CCN(C)CC3)cc21 | > 42 µM (inactive)
13 | CC(C)C(=O)Nc1cccc(-c2nc3ncccc3o2)c1 | > 42 µM (inactive)
14 | C=C1C2C[C@@]3([C@@H]1O)[C@@H](C[C@@H]2O)[C@@]12C4[C@@H]3C[C@@H]1[C@@](C)(CC[C@@H]2O)CN4CC | > 42 µM (inactive)
15 | COc1ccc(/C=N\Nc2ccc([N+](=O)[O-])cc2)c(C(=O)O)c1OC | > 42 µM (inactive)
16 | CCOC(=O)c1cnc2c(OC)cccc2c1N1CCN(c2ccccc2OC)CC1 | > 42 µM (inactive)
17 | CN(C)/C=N/NC(=O)c1ccccc1 | > 42 µM (inactive)

Row | SMILES | AC50
18 | CN(C)CCOC(=O)CCc1ccccc1 | > 42 µM (inactive)
19 | CS(=O)(=O)c1ccc(Cl)c(NC(=O)c2ccc3ccccc3c2)c1 | > 42 µM (inactive)
20 | COc1ccc(-c2noc(CSc3nc(-c4ccccc4)cc(=O)[nH]3)n2)cc1OC | > 42 µM (inactive)
21 | CCNc1ccccc(C(=O)/C=C/c2ccc3c(c2)OCO3)c1=O | > 42 µM (inactive)
22 | O=C1c2cc(N3CCCC3)c([N+](=O)[O-])cc2C(=O)N1c1ccccc1 | > 42 µM (inactive)
23 | O=C1C2CCCCN2C(=O)N1CCCCN1CCN(c2ccccc2Oc2ccccc2)CC1 (stereo not drawn) | > 42 µM (inactive)
24 | O=C(NCc1ccco1)c1ccc(Br)c(S(=O)(=O)N2CCCCC2)c1 | > 42 µM (inactive)
25 | Nn1c(SCc2cc([N+](=O)[O-])cc3c2OCOC3)nnc1-c1ccccn1 | > 42 µM (inactive)
26 | COC(=O)C1CCN(S(=O)(=O)Cc2ccccc2)CC1 | > 42 µM (inactive)
27 | COCCCNS(=O)(=O)c1ccc(Oc2ncc(C(F)(F)F)cc2Cl)cc1 | > 42 µM (inactive)
28 | CN(c1ccccc1)c1ccc(/C=C/[N+](=O)[O-])cc1 | 5.85 µM
29 | C[C@@]12C(=O)Nc3cc(F)ccc3C(=O)N1[C@H]1c3ccccc3OC[C@@H]1[C@@H]2c1ccccc1 | 5.7 µM
30 | COc1ccc(OC)c(-c2cc(C(=O)Nc3c(C)nn(Cc4ccccc4Cl)c3C)no2)c1 | > 42 µM (inactive)
31 | Cc1nc(N2CCN(c3ccccn3)CC2)c2c(C)c(C(=O)N3CCN(c4ccccc4F)CC3)sc2n1 | > 42 µM (inactive)
32 | CCCC(=O)NC(C)c1nc2ccccc2[nH]1 (stereo not drawn) | > 42 µM (inactive)
33 | COc1ccc(C(=O)COc2ccc3ccc(=O)oc3c2)cc1 | > 42 µM (inactive)
